Test results from patent EP2951180B1, “2,6,7,8 SUBSTITUTED PURINES AS HDM2 INHIBITORS” (Merck Sharp & Dohme Corp., priority 2013, dated 2014).
pIC50: −log10 of the molar value.

Target: T1, HDM2 (Homo sapiens, UniProt Q00987)
T1 construct: Thioredoxin (N); made in house; host or cells: E. coli strain BL21(DE3)Rosetta
Test: FRET assay (HDM2 inhibition; method not described in this part)
Type: binding
Conditions: Table 1

T1 sequence (Q00987 17-125): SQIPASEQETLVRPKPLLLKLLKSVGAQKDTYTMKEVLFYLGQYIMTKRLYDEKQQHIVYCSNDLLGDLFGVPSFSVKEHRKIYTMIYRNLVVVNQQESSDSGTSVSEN

SMILES	pIC50
CCc1ccnc(-c2nc3nc(C(=O)O)nc(N[C@H](C)C4CCC4)c3n2Cc2ccc(C(F)(F)F)cc2)c1 [Example 1.69, 6-{[(1R)-1-cyclobutylethyl]amino}-8-(4-ethylpyridin-2-yl)-7-[4-(trifluoromethyl)benzyl]-7H-purine-2-carboxylic acid]	7.37
CC(C)c1cccc(-c2nc3nc(C(=O)O)nc(N[C@H](C)C4CCC4)c3n2Cc2ccc(C(F)(F)F)cc2)n1 [Example 1.70, 6-{[(1R)-1-cyclobutylethyl]amino}-8-[6-(1-methylethyl)pyridin-2-yl]-7-[4-(trifluoromethyl)benzyl]-7H-purine-2-carboxylic acid]	7.33
CC(C)c1ccnc(-c2nc3nc(C(=O)O)nc(N[C@H](C)C4CCC4)c3n2Cc2ccc(OC(F)(F)F)c(F)c2)c1 [Example 1.71, 6-{[(1R)-1-cyclobutylethyl]amino}-7-[3-fluoro-4-(trifluoromethoxy)benzyl]-8-[4-(1-methylethyl)pyridin-2-yl]-7H-purine-2-carboxylic acid]	8.02
CC(C)c1ccnc(-c2nc3nc(C(=O)O)nc(N[C@H](C)C4CCC4)c3n2Cc2ccc(OC(F)(F)F)cc2)c1 [Example 1.72, 6-{[(1R)-1-cyclobutylethyl]amino}-8-[4-(1-methylethyl)pyridin-2-yl]-7-[4-(trifluoromethoxy)benzyl]-7H-purine-2-carboxylic acid]	7.91
C[C@@H](Nc1nc(C(=O)O)nc2nc(-c3nccc4ccccc34)n(Cc3ccc(C(F)(F)F)cc3)c12)C1CCC1 [Example 1.73, 6-{[(1R)-1-cyclobutylethyl]amino}-8-isoquinolin-1-yl-7-[4-(trifluoromethyl)benzyl]-7H-purine-2-carboxylic acid]	7.56
COc1ccnc(-c2nc3nc(C(=O)O)nc(N[C@H](C)C4CCC4)c3n2Cc2ccc(C(F)(F)F)cc2)c1C [Example 1.74, 6-{[(1R)-1-cyclobutylethyl]amino}-8-(4-methoxy-3-methylpyridin-2-yl)-7-[4-(trifluoromethyl)benzyl]-7H-purine-2-carboxylic acid]	7.14
C[C@@H](Nc1nc(C(=O)O)nc2nc(-c3ncccc3-c3ccccc3)n(Cc3ccc(C(F)(F)F)cc3)c12)C1CCC1 [Example 1.75, 6-{[(1R)-1-cyclobutylethyl]amino}-8-(3-phenylpyridin-2-yl)-7-[4-(trifluoromethyl)benzyl]-7H-purine-2-carboxylic acid]	8.21
C[C@@H](Nc1nc(C(=O)O)nc2nc(-c3cc(C(C)(C)C)ccn3)n(Cc3ccc(C(F)(F)F)c(F)c3)c12)C1CCC1 [Example 1.76, 8-(4-tert-butylpyridin-2-yl)-6-{[(1R)-1-cyclobutylethyl]amino}-7-[3-fluoro-4-(trifluoromethyl)benzyl]-7H-purine-2-carboxylic acid]	8.07
C[C@@H](Nc1nc(C(=O)O)nc2nc(-c3cc(C4CC4)ccn3)n(Cc3ccc(C(F)(F)F)c(F)c3)c12)C1CCC1 [Example 1.77, 6-{[(1R)-1-cyclobutylethyl]amino}-8-(4-cyclopropylpyridin-2-yl)-7-[3-fluoro-4-(trifluoromethyl)benzyl]-7H-purine-2-carboxylic acid]	7.70
C[C@@H](Nc1nc(C(=O)O)nc2nc(-c3cc(C4CCC4)ccn3)n(Cc3ccc(C(F)(F)F)c(F)c3)c12)C1CCC1 [Example 1.78, 6-{[(1R)-1-cyclobutylethyl]amino}-8-(4-cyclobutylpyridin-2-yl)-7-[3-fluoro-4-(trifluoromethyl)benzyl]-7H-purine-2-carboxylic acid]	8.03
CCc1ccnc(-c2nc3nc(C(=O)O)nc(N[C@H](C)C4CCC4)c3n2Cc2ccc(C(F)(F)F)c(F)c2)c1 [Example 1.79, 6-{[(1R)-1-cyclobutylethyl]amino}-8-(4-ethylpyridin-2-yl)-7-[3-fluoro-4-(trifluoromethyl)benzyl]-7H-purine-2-carboxylic acid]	7.99
CCCc1ccnc(-c2nc3nc(C(=O)O)nc(N[C@H](C)C4CCC4)c3n2Cc2ccc(C(F)(F)F)c(F)c2)c1 [Example 1.80, 6-{[(1R)-1-cyclobutylethyl]amino}-7-[3-fluoro-4-(trifluoromethyl)benzyl]-8-(4-propylpyridin-2-yl)-7H-purine-2-carboxylic acid]	8.13
CC(C)c1cncc(-c2nc3nc(C(=O)O)nc(N[C@H](C)C4CCC4)c3n2Cc2ccc(C(F)(F)F)cc2)c1 [Example 1.81, 6-{[(1R)-1-cyclobutylethyl]amino}-8-[5-(1-methylethyl)pyridin-3-yl]-7-[4-(trifluoromethyl)benzyl]-7H-purine-2-carboxylic acid]	7.13
Cc1ccnc(-c2nc3nc(C(=O)O)nc(N[C@H](C)C4CCC4)c3n2Cc2ccc(C(F)(F)F)cc2)c1F [Example 1.82, 6-{[(1R)-1-cyclobutylethyl]amino}-8-(3-fluoro-4-methylpyridin-2-yl)-7-[4-(trifluoromethyl)benzyl]-7H-purine-2-carboxylic acid]	7.31
CC(C)c1ccc(OC(F)(F)F)c(-c2nc3nc(C(=O)O)nc(N[C@H](C)C4CCC4)c3n2Cc2ccc(OC(F)(F)F)c(F)c2)c1 [Example 1.83, 6-{[(1R)-1-cyclobutylethyl]amino}-7-[3-fluoro-4-(trifluoromethoxy)benzyl]-8-[5-(1-methylethyl)-2-(trifluoromethoxy)phenyl]-7H-purine-2-carboxylic acid]	7.63
Cc1ccc(OC(F)(F)F)c(-c2nc3nc(C(=O)O)nc(N[C@H](C)C4CCC4)c3n2Cc2ccc(C(F)(F)F)cc2)c1 [Example 1.84, 6-{[(1R)-1-cyclobutylethyl]amino}-8-[5-methyl-2-(trifluoromethoxy)phenyl]-7-[4-(trifluoromethyl)benzyl]-7H-purine-2-carboxylic acid]	8.01
CC(C)Cc1ccnc(-c2nc3nc(C(=O)O)nc(N[C@H](C)C4CCC4)c3n2Cc2ccc(C(F)(F)F)cc2)c1 [Example 1.85, 6-{[(1R)-1-cyclobutylethyl]amino}-8-[4-(2-methylpropyl)pyridin-2-yl]-7-[4-(trifluoromethyl)benzyl]-7H-purine-2-carboxylic acid]	8.01
Cc1cnc(-c2nc3nc(C(=O)O)nc(N[C@H](C)C4CCC4)c3n2Cc2ccc(C(F)(F)F)cc2)cc1C(C)C [Example 1.86, 6-{[(1R)-1-cyclobutylethyl]amino}-8-[5-methyl-4-(1-methylethyl)pyridin-2-yl]-7-[4-(trifluoromethyl)benzyl]-7H-purine-2-carboxylic acid]	7.61
Cc1c(C(C)C)ccnc1-c1nc2nc(C(=O)O)nc(N[C@H](C)C3CCC3)c2n1Cc1ccc(C(F)(F)F)cc1 [Example 1.87, 6-{[(1R)-1-cyclobutylethyl]amino}-8-[3-methyl-4-(1-methylethyl)pyridin-2-yl]-7-[4-(trifluoromethyl)benzyl]-7H-purine-2-carboxylic acid]	7.23
C[C@@H](Nc1nc(C(=O)O)nc2nc(-c3cc(CCC(C)(C)C)ccn3)n(Cc3ccc(C(F)(F)F)cc3)c12)C1CCC1 [Example 1.88, 6-{[(1R)-1-cyclobutylethyl]amino}-8-[4-(3,3-dimethylbutyl)pyridin-2-yl]-7-[4-(trifluoromethyl)benzyl]-7H-purine-2-carboxylic acid]	7.71
C[C@@H](Nc1nc(C(=O)O)nc2nc(-c3cc(CCC4CC4)ccn3)n(Cc3ccc(C(F)(F)F)cc3)c12)C1CCC1 [Example 1.89, 6-{[(1R)-1-cyclobutylethyl]amino}-8-[4-(2-cyclopropylethyl)pyridin-2-yl]-7-[4-(trifluoromethyl)benzyl]-7H-purine-2-carboxylic acid]	8.06
Cc1cnc(-c2nc3nc(C(=O)O)nc(N[C@H](C)C4CCC4)c3n2Cc2ccc(OC(F)(F)F)c(F)c2)cc1C(C)C [Example 1.90, 6-{[(1R)-1-cyclobutylethyl]amino}-7-[3-fluoro-4-(trifluoromethoxy)benzyl]-8-[5-methyl-4-(1-methylethyl)pyridin-2-yl]-7H-purine-2-carboxylic acid]	7.61
Cc1c(C(C)C)ccnc1-c1nc2nc(C(=O)O)nc(N[C@H](C)C3CCC3)c2n1Cc1ccc(OC(F)(F)F)c(F)c1 [Example 1.91, 6-{[(1R)-1-cyclobutylethyl]amino}-7-[3-fluoro-4-(trifluoromethoxy)benzyl]-8-[3-methyl-4-(1-methylethyl)pyridin-2-yl]-7H-purine-2-carboxylic acid]	7.65
Cc1cnc(-c2nc3nc(C(=O)O)nc(N[C@H](C)C4CCC4)c3n2Cc2ccc(C(F)(F)F)c(F)c2)cc1C(C)C [Example 1.92, 6-{[(1R)-1-cyclobutylethyl]amino}-7-[3-fluoro-4-(trifluoromethyl)benzyl]-8-[5-methyl-4-(1-methylethyl)pyridin-2-yl]-7H-purine-2-carboxylic acid]	7.80
Cc1cc(C(C)C)cc(-c2nc3nc(C(=O)O)nc(N[C@H](C)C4CCC4)c3n2Cc2ccc(C(F)(F)F)cc2)n1 [Example 1.93, 6-{[(1R)-1-cyclobutylethyl]amino}-8-[6-methyl-4-(1-methylethyl)pyridin-2-yl]-7-[4-(trifluoromethyl)benzyl]-7H-purine-2-carboxylic acid]	7.72
Cc1cc(-c2nc3nc(C(=O)O)nc(N[C@H](C)C4CCC4)c3n2Cc2ccc(C(F)(F)F)cc2)n(C)n1 [Example 1.94, 6-{[(1R)-1-cyclobutylethyl]amino}-8-(1,3-dimethyl-1H-pyrazol-5-yl)-7-[4-(trifluoromethyl)benzyl]-7H-purine-2-carboxylic acid]	6.76
Cc1c(-c2nc3nc(C(=O)O)nc(N[C@H](C)C4CCC4)c3n2Cc2ccc(C(F)(F)F)cc2)cnn1C [Example 1.95, 6-{[(1R)-1-cyclobutylethyl]amino}-8-(1,5-dimethyl-1H-pyrazol-4-yl)-7-[4-(trifluoromethyl)benzyl]-7H-purine-2-carboxylic acid]	6.86
C[C@@H](Nc1nc(C(=O)O)nc2nc(-c3ccccc3)n(Cc3ccc(C(F)(F)F)cc3)c12)C1CC1 [Example 1.96, 6-{[(1R)-1-cyclopropylethyl]amino} -8-phenyl-7-[4-(trifluoromethyl)benzyl]-7H-purine-2-carboxylic acid]	6.43
